Assays:
OCI-Ly10 [1] = experiment: Induction of apoptosis in human OCILY10 cells assessed as early apoptotic cells at 0.2 uM incubated for 24 hrs by Annexin V-FITC/PI staining based flow cytometry (reference value: 10 %); format: functional
OCI-Ly10 [2] = experiment: Induction of apoptosis in human OCILY10 cells assessed as early apoptotic cells at 1 uM incubated for 24 hrs by Annexin V-FITC/PI staining based flow cytometry (reference value: 10 %); format: functional

## Cn1cc(-c2cc3c(cc2NC(=O)c2coc(-c4ccnc(N)c4)n2)CC(C)(C)O3)cn1
OCI-Ly10 [1]
  Activity: 11.2%
OCI-Ly10 [2]
  Activity: 36.4%
